In patent US7595300B2, “7-quinolyl ketolide antibacterial agents” (priority 2005, dated 2009):
Converted amounts (≈) assume the structure as drawn.

Assays:
[1] = tested on: Streptococcus pneumoniae ATCC 6303; assay: rat lower respiratory tract infection (lung pneumonia) model; type: in vivo; settings: for Log CFU/g (avg, n = 8): rat lungs, 12 hours after the last dose
Method: The in vivo efficacy of compounds (II) and (III) were evaluated in a rat lower respiratory tract infection model. Groups of 8 rats were infected intratracheally with 0.5 mL containing 10^6 CFUs of Streptococcus pneumoniae ATCC 6303 in 5% hog gastric mucin. Compounds dissolved in ethanol were administered by oral gavage daily over 3 days starting 18 hours post-inoculation. Lungs were aseptically removed from survivors 12 hours after the last dose and examined for visible signs of infection, then homogenized in sterile PBS and plated for determination of CFUs by log plating on Columbia agar-nalidixic acid plates.

P. acnes = assay: MIC, NCCLS Reference Agar Dilution Method for anaerobic bacteria; type: cell-based, Propionibacterium acnes
Method: (§1) Minimum inhibitory concentrations (“MICs”) were determined by the NCCLS Reference Agar Dilution Method (M11-A5, Vol. 21, No. 2) for anaerobic bacteria. A panel of 84 antibiotic-susceptible and resistant strains of Propionibacteria from distinct geographic locations were selected. Following revival from frozen stocks, each strain was purity plated onto Wilkins Chalgren Agar, pH 7.2 (Oxoid, UK), and the appropriate antibiotic resistance/susceptibility phenotype was confirmed by antibiotic disc testing. Each strain was subjected to an agar dilution MIC assay. […] The inocula for each batch of strains were prepared from 7-day old Wilkins Chalgren Agar plate cultures by resuspension of colonies in Wilkins Chalgren Anaerobe broth, pH 7.2 (Oxoid, UK) to an optical density (OD600) of 0.2±0.02. The inoculum (1.0-2.0 μL) for each strain was applied to a Wilkins Chalgren Agar MIC plate in a grid pattern using a Multipoint Inoculator (Denley, UK). All agar plates were incubated at 37° C. for 3 days under anaerobic conditions in AnaeroPack 7 liter rectangular jars (Mitsubishi Gas Chemical Company, Inc., Japan).

P. granulosum = assay: as above; type: cell-based, Propionibacterium granulosum
Method: as §1

in vivo = settings: male, beagle, dog, iv; for AUC: AUCtot
Method: The dosing route was an intravenous infusion jugular vein access). The infusion was accomplished using a CADD Prizm® ambulatory infusion pump attached to a jacket worn by the dog. The dose duration for the intravenous infusion was 30 min for all doses administered, except the last dose (30 mg/kg) where the infusion period was extended to 45 min to accommodate the larger dose volume required for this dose. The vehicle dose and diluent for the test article was 0.05-M sodium citrate in sterile water for injection.
There was one treatment group of four non-naïve dogs and the study was comprised of both pharmacokinetic and telemetry phases, as summarized in the dose administration table for compound (III) (Table 16) below. At least one week was given between dosings to allow clearance of the drug.
For the pharmacokinetic (PK) phase, the blood collection intervals were: predose, 10, 20, 30, (end dose time), 35, 45, 60, 90, 150, 270, 390, 510, 1440, and 2880 min relative to the start of the infusion. Whole blood (˜2 mL) was collected into Vacutainerss' (BD, Franklin, N.J.) containing sodium heparin as the anticoagulant agent. Blood samples were centrifuged at a speed of 3000 rpm, a temperature of 4° C. and a run time of 10 min. Plasma samples were transferred to amber glass vials and analyzed by LC/MS/MS to determine drug concentrations.

human hepG2 hepatocytes = assay: In vitro hepatotoxicity, resazurin and Nile Red staining; type: cell-based; settings: 100 μM
Method: In one experiment, hepatotoxicity was estimated by overnight incubation of compounds at 3, 10, 30, 100, or 300 μM with cultured rat or human hepG2 hepatocytes, followed by staining of the cells with resazurin to measure viability or with Nile Red to measure steatosis. The minimal drug concentration at which changes in dye binding were observed was noted as the minimal effective concentration. The compound of formula (VIII) wherein Z=3-quinolyl affected […] and steatosis in human HepG2 hepatocytes at 30 μM.

[2] = marker RNA 2058, phenotype EryR
[3] = marker RNA 2059, phenotype EryR

CC1CC(N(C)C)C(O)C(O[C@@H]2[C@@H](C)C(=O)[C@](C)(F)C(=O)O[C@H](CCF)[C@@]3(C)OC(=O)N[C@@H]3[C@@H](C)C(=O)[C@H](C)C[C@@]2(C)OC/C=C/c2ccc3cccnc3c2)O1 (stereo partly shown) [Compound (III), 6-O-(1-(7-quinolyl)-3-propenyl)-11-amino-11-deoxy-3-(descladinosyl)-3-oxo-2,15-difluoroerythromycin A-11,12-cyclic carbamate]
Log CFU/g (avg, n = 8) ([1]; 0.5 mg/kg oral gavage daily over 3 days): 3.9 Log CFU/g | Log CFU/g (avg, n = 8) ([1]; 2.5 mg/kg oral gavage daily over 3 days): 3.0 Log CFU/g | % survivors ([1]; rat, 0.5 mg/kg oral gavage daily over 3 days): 100% | % survivors ([1]; rat, 2.5 mg/kg oral gavage daily over 3 days): 100% | reducing the bacterial load in the rat lungs and increasing survival relative to control animals ([1]; rat, oral gavage daily over 3 days): efficacious | MIC range (P. acnes; marker RNA 1058, phenotype TetR): 0.06 to 1 µg/mL | MIC range (P. acnes; marker RNA 1058/2058, phenotype TetR, EryR): 1 to 2 µg/mL | MIC range (P. acnes; marker RNA 1058/2059, phenotype TetR, EryR): 0.5 µg/mL (≈ 0.623 µM) | MIC range (P. acnes; marker RNA 2057, phenotype EryR): 0.06 µg/mL (≈ 0.0748 µM) | MIC range (P. acnes; [2]): 0.125 to 2 µg/mL | MIC range (P. acnes; marker RNA 2058, phenotype EryR, TetR): 0.06 to 1 µg/mL | MIC range (P. acnes; [3]): 0.125 to 2 µg/mL | MIC range (P. acnes; marker ermX, phenotype EryR): 32 to 128 µg/mL | MIC range (P. acnes; marker none, phenotype none): 0.06 µg/mL (≈ 0.0748 µM) | MIC range (P. acnes; marker unknown, phenotype ClindR): 0.06 µg/mL (≈ 0.0748 µM) | MIC range (P. granulosum; [2]): 8 µg/mL (≈ 9.98 µM) | MIC range (P. granulosum; [3]): 0.125 to 2 µg/mL | MIC range (P. granulosum; marker ermX, phenotype EryR): 4 to 32 µg/mL | MIC range (P. granulosum; marker none, phenotype none): 0.06 µg/mL (≈ 0.0748 µM) | Tmax (in vivo; 11 mg/kg): 0.46 ± 0.08 h | half-life (in vivo; 11 mg/kg): 5.36 ± 0.4 h | AUC (in vivo; 11 mg/kg): 33900 ± 3190 ng·h/mL | Cmax (in vivo; 11 mg/kg, Mean Cmax): 6000 ± 1130 ng/mL | AUCtot (in vivo; 15 mg/kg): 36047 ± 22104 ng·h/mL | mean Cmax (in vivo; 15 mg/kg): 6206 ± 3144 ng/mL | AUC (in vivo; 15 mg/kg): 43900 ± 23100 ng·h/mL | Cmax (in vivo; 15 mg/kg, mean Cmax): 7520 ± 3310 ng/mL | effects on metabolic stability and steatosis (human hepG2 hepatocytes): No effects
